How the values were obtained:
Assay type in all cases: cell-based
Conditions in all cases: compounds at 50 nM and 500 nM
GSPT1 = biological target: T1, GSPT1 (Homo sapiens, UniProt P15170+Q96SW2); test: Western blot degradation of GSPT1 in hPBMCs (24 h)
T1 construct: The supernatant was aspirated as the extracted total cell protein; endogenous in cells; host or cells: human peripheral blood mononuclear cells (hPBMCs)
Method in brief: (§1)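 Read-out is Western blot band grayscale, divided by internal control band and normalised to give percent target protein remaining; degradation rate is 1 minus that value. Cells were human PBMCs exposed to compound at 50 nM and 500 nM for 24 hours.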

WEE1 = biological target: T2, WEE1 (Homo sapiens, UniProt P30291+Q96SW2); test: Western blot degradation of WEE1 in hPBMCs (24 h)
T2 construct: The supernatant was aspirated as the extracted total cell protein; endogenous in cells; host or cells: human peripheral blood mononuclear cells (hPBMCs)
T2 sequence (P30291 whole entry): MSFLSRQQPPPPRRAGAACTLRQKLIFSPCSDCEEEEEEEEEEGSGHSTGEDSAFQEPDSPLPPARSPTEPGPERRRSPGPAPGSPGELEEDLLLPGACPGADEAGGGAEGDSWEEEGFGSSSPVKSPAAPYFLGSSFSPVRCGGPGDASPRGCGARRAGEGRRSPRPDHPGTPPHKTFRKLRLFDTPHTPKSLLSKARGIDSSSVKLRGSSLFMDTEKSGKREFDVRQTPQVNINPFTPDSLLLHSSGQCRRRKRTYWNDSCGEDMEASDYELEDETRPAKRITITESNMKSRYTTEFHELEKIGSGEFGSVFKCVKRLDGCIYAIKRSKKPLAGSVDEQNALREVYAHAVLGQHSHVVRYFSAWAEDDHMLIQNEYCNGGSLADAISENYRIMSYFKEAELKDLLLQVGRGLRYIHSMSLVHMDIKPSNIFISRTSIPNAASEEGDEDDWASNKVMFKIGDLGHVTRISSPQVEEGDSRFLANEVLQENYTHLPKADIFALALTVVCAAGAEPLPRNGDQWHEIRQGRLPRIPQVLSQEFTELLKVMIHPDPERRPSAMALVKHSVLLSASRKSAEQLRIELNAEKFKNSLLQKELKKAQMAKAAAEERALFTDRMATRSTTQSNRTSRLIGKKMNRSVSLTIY
T2 sequence (Q96SW2 whole entry): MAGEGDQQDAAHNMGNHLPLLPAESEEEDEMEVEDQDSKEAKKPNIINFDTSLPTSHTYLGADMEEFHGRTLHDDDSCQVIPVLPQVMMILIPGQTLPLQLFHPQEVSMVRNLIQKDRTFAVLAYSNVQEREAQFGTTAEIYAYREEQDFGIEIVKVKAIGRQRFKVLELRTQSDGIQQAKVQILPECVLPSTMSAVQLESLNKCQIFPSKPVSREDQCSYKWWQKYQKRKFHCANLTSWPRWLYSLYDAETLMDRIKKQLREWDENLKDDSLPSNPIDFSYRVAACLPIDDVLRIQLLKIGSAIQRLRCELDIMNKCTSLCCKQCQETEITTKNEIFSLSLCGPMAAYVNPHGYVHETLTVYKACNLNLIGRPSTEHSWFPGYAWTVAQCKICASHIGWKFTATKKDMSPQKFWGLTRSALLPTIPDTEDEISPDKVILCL
T2 sequence (Q16531 whole entry partner): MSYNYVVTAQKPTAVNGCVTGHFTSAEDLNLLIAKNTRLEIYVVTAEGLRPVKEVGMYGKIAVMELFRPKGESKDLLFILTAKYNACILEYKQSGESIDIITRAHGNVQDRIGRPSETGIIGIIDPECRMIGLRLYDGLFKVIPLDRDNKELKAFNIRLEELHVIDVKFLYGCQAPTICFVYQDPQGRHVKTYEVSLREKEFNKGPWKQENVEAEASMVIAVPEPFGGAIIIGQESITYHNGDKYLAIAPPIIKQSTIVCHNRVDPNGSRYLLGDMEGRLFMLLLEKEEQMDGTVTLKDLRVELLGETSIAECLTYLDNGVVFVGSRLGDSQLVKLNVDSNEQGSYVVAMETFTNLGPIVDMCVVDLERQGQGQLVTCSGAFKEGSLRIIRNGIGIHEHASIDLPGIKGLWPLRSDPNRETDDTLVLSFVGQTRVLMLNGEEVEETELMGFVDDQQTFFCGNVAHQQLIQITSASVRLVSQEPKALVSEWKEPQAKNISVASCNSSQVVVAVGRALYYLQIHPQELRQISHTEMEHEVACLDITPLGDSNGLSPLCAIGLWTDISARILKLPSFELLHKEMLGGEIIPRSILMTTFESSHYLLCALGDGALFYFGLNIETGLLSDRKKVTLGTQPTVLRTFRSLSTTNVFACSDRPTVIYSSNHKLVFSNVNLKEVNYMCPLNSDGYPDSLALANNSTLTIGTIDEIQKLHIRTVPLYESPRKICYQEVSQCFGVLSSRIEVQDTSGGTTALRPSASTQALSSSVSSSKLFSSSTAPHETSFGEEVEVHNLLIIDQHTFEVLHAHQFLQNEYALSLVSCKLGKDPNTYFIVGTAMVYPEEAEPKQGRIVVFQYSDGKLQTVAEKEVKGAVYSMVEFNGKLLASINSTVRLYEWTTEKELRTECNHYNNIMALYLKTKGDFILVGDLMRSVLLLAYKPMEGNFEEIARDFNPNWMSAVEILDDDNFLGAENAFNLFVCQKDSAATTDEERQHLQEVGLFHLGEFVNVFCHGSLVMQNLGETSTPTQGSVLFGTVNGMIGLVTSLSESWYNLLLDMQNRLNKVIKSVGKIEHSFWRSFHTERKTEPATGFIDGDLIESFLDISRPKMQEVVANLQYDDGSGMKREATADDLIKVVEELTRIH
Method in brief: as §1

IKZF3 = biological target: T3, IKZF3 (Homo sapiens, UniProt Q96SW2+Q9UKT9); test: Western blot degradation of IKZF3 in hPBMCs (24 h)
T3 construct: The supernatant was aspirated as the extracted total cell protein; endogenous in cells; host or cells: human peripheral blood mononuclear cells (hPBMCs)
T3 sequence (Q9UKT9 whole entry): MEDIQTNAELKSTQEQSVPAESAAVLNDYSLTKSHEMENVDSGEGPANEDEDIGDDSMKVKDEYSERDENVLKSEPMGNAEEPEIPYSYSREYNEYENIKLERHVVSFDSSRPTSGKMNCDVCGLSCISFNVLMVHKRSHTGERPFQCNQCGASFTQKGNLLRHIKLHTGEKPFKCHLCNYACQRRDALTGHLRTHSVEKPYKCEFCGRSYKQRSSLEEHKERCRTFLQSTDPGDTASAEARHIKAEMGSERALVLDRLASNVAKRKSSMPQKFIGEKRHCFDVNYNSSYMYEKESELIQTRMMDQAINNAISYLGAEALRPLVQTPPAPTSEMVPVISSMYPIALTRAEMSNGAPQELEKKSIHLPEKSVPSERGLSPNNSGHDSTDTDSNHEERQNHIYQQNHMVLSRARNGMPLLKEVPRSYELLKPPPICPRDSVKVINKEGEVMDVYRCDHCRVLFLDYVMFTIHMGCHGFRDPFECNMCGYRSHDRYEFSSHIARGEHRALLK
T3 sequence (Q96SW2 whole entry): as the sequence (Q96SW2 whole entry) above
T3 sequence (Q16531 whole entry partner): as the sequence (Q16531 whole entry partner) above
Method in brief: as §1

CK1α = biological target: T4, CK1α (Homo sapiens, UniProt P48729+Q96SW2); test: Western blot degradation of CK1α in hPBMCs (24 h)
T4 construct: The supernatant was aspirated as the extracted total cell protein; endogenous in cells; host or cells: human peripheral blood mononuclear cells (hPBMCs)
T4 sequence (P48729 whole entry): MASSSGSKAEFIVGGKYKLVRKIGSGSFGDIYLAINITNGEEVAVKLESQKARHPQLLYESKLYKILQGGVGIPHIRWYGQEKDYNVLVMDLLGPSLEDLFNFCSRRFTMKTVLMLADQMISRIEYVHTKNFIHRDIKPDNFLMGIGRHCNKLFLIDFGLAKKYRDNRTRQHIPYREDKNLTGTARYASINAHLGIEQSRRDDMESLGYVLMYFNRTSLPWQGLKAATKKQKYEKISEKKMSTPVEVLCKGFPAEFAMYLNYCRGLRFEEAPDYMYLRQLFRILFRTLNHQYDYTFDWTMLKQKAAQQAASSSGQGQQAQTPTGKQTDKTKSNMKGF
T4 sequence (Q96SW2 whole entry): as the sequence (Q96SW2 whole entry) above
T4 sequence (Q16531 whole entry partner): as the sequence (Q16531 whole entry partner) above
Method in brief: as §1

IKZF2 = biological target: T5, IKZF2 (Homo sapiens, UniProt Q96SW2+Q9UKS7); test: Western blot degradation of IKZF2 in hPBMCs (24 h)
T5 construct: The supernatant was aspirated as the extracted total cell protein; endogenous in cells; host or cells: human peripheral blood mononuclear cells (hPBMCs)
T5 sequence (Q9UKS7 whole entry): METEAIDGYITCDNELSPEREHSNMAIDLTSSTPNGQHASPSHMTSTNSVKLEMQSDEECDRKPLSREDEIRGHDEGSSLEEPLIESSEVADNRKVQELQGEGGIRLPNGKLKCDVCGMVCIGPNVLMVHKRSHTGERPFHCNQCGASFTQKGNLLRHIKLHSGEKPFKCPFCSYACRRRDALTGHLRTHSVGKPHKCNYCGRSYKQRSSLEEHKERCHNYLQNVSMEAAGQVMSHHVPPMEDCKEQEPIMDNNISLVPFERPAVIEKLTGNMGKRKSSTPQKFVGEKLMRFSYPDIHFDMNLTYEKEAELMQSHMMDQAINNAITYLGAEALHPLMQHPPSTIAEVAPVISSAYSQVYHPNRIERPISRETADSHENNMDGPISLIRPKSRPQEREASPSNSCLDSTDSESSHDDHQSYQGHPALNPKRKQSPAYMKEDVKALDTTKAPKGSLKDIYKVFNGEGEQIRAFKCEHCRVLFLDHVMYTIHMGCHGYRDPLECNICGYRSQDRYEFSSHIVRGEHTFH
T5 sequence (Q96SW2 whole entry): as the sequence (Q96SW2 whole entry) above
T5 sequence (Q16531 whole entry partner): as the sequence (Q16531 whole entry partner) above
Method in brief: as §1

IKZF1 = biological target: T6, IKZF1 (Homo sapiens, UniProt Q13422+Q96SW2); test: Western blot degradation of IKZF1 in hPBMCs (24 h)
T6 construct: The supernatant was aspirated as the extracted total cell protein; endogenous in cells; host or cells: human peripheral blood mononuclear cells (hPBMCs)
T6 sequence (Q13422 whole entry): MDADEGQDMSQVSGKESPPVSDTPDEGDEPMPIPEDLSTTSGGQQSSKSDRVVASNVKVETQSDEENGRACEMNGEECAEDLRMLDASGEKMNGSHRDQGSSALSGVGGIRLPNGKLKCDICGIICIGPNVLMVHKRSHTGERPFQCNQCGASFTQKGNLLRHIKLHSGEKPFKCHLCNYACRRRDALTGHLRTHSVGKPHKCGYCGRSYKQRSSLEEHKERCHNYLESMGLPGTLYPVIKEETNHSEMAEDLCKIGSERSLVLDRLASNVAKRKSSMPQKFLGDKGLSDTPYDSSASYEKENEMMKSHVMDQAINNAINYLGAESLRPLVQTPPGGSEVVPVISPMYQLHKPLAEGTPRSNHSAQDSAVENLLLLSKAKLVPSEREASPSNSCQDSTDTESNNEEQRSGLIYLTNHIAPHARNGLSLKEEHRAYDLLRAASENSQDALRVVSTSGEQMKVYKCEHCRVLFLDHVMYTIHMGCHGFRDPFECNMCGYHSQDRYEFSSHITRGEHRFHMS
T6 sequence (Q96SW2 whole entry): as the sequence (Q96SW2 whole entry) above
T6 sequence (Q16531 whole entry partner): as the sequence (Q16531 whole entry partner) above
Method in brief: as §1

SMILES	GSPT1 substrate protein remaining % (GSPT1)	WEE1 substrate protein remaining % (WEE1)	IKZF3 substrate protein remaining % (IKZF3)	CK1α substrate protein remaining % (CK1α)	IKZF2 substrate protein remaining % (IKZF2)	IKZF1 substrate protein remaining % (IKZF1)
O=C1CCN(N2Cc3cc(CN4CCC(c5c[nH]c6ncccc56)CC4)ccc3C2=O)C(=O)N1 [GT-07576, 1-(5-((4-(1H-pyrrolo[2,3-b]pyridin-3-yl)piperidin-1-yl)methyl)-1-oxoisoindolin-2-yl)dihydropyrimidine-2,4(1H,3H)-dione]	A (0% ≤ substrate protein remaining % ≤80%)	A (0% ≤ substrate protein remaining % ≤80%)	B (80%< substrate protein remaining % ≤100%)	A (0% ≤ substrate protein remaining % ≤80%)	A (0% ≤ substrate protein remaining % ≤80%)	A (0% ≤ substrate protein remaining % ≤80%)
O=C1CCN(N2Cc3cc(CN4CCC(n5c(=O)[nH]c6cc(F)ccc65)CC4)ccc3C2=O)C(=O)N1 [GT-07579, 1-(5-((4-(5-fluoro-2-oxo-2,3-dihydro-1H-benzo[d]imidazol-1-yl)piperidin-1-yl)methyl)-1-oxoisoindolin-2-yl)dihydropyrimidine-2,4(1H,3H)-dione]	A (0% ≤ substrate protein remaining % ≤80%)	A (0% ≤ substrate protein remaining % ≤80%)	B (80%< substrate protein remaining % ≤100%)	B (80%< substrate protein remaining % ≤100%)	A (0% ≤ substrate protein remaining % ≤80%)	A (0% ≤ substrate protein remaining % ≤80%)
O=C1CCN(N2C(=O)c3ccc(CN4CC=C(c5c[nH]c6cc(F)ccc56)CC4)cc3C2=O)C(=O)N1 [GT-07580, 2-(2,4-dioxotetrahydropyrimidin-1(2H)-yl)-5-((4-(6-fluoro-1H-indol-3-yl)-3,6-dihydropyridin-1(2H)-yl)methyl)isoindoline-1,3-dione]	A (0% ≤ substrate protein remaining % ≤80%)	A (0% ≤ substrate protein remaining % ≤80%)	A (0% ≤ substrate protein remaining % ≤80%)	B (80%< substrate protein remaining % ≤100%)	A (0% ≤ substrate protein remaining % ≤80%)	A (0% ≤ substrate protein remaining % ≤80%)
Cn1cc(C2CCN(Cc3ccc4c(c3)C(=O)N(N3CCC(=O)NC3=O)C4=O)CC2)c2ccc(F)cc21 [GT-07581, 2-(2,4-dioxotetrahydropyrimidin-1(2H)-yl)-5-((4-(6-fluoro-1-methyl-1H-indol-3-yl)piperidin-1-yl)methyl)isoindoline-1,3-dione]	A (0% ≤ substrate protein remaining % ≤80%)	A (0% ≤ substrate protein remaining % ≤80%)	B (80%< substrate protein remaining % ≤100%)	B (80%< substrate protein remaining % ≤100%)	A (0% ≤ substrate protein remaining % ≤80%)	A (0% ≤ substrate protein remaining % ≤80%)
O=C1CCN(N2C(=O)c3ccc(CN4CCC(c5c[nH]c6ncccc56)CC4)cc3C2=O)C(=O)N1 [GT-07582, 5-((4-(1H-pyrrolo[2,3-b]pyridin-3-yl)piperidin-1-yl)methyl)-2-(2,4-dioxotetrahydropyrimidin-1(2H)-yl)isoindoline-1,3-dione]	A (0% ≤ substrate protein remaining % ≤80%)	A (0% ≤ substrate protein remaining % ≤80%)	B (80%< substrate protein remaining % ≤100%)	B (80%< substrate protein remaining % ≤100%)	A (0% ≤ substrate protein remaining % ≤80%)	A (0% ≤ substrate protein remaining % ≤80%)
O=C1CCN(N2C(=O)c3ccc(CN4CCC(n5c(=O)[nH]c6cc(F)ccc65)CC4)cc3C2=O)C(=O)N1 [GT-07583, 2-(2,4-dioxotetrahydropyrimidin-1(2H)-yl)-5-((4-(5-fluoro-2-oxo-2,3-dihydro-1H-benzo[d]imidazol-1-yl)piperidin-1-yl)methyl)isoindoline-1,3-dione]	A (0% ≤ substrate protein remaining % ≤80%)	A (0% ≤ substrate protein remaining % ≤80%)	B (80%< substrate protein remaining % ≤100%)	B (80%< substrate protein remaining % ≤100%)	B (80%< substrate protein remaining % ≤100%)	B (80%< substrate protein remaining % ≤100%)
O=C1CCN(N2Cc3cc(CN4CCC(N5CCCc6cc(F)ccc65)CC4)ccc3C2=O)C(=O)N1 [GT-07584, 1-(5-((4-(6-fluoro-3,4-dihydroquinolin-1(2H)-yl)piperidin-1-yl)methyl)-1-oxoisoindolin-2-yl)dihydropyrimidine-2,4(1H,3H)-dione]	A (0% ≤ substrate protein remaining % ≤80%)	A (0% ≤ substrate protein remaining % ≤80%)	B (80%< substrate protein remaining % ≤100%)	B (80%< substrate protein remaining % ≤100%)	B (80%< substrate protein remaining % ≤100%)	A (0% ≤ substrate protein remaining % ≤80%)
O=C1CCN(N2Cc3cc(CN4CCC(N5CCOc6cc(F)ccc65)CC4)ccc3C2=O)C(=O)N1 [GT-07585, 1-(5-((4-(7-fluoro-2,3-dihydro-4H-benzo[b][1,4]oxazin-4-yl)piperidin-1-yl)methyl)-1-oxoisoindolin-2-yl)dihydropyrimidine-2,4(1H,3H)-dione]	A (0% ≤ substrate protein remaining % ≤80%)	A (0% ≤ substrate protein remaining % ≤80%)	B (80%< substrate protein remaining % ≤100%)	B (80%< substrate protein remaining % ≤100%)	B (80%< substrate protein remaining % ≤100%)	A (0% ≤ substrate protein remaining % ≤80%)
O=C1CCN(N2Cc3cc(CN4CCC(N5C(=O)COc6cc(F)ccc65)CC4)ccc3C2=O)C(=O)N1 [GT-07586, 1-(5-((4-(7-fluoro-3-oxo-2,3-dihydro-4H-benzo[b][1,4]oxazin-4-yl)piperidin-1-yl)methyl)-1-oxoisoindolin-2-yl)dihydropyrimidine-2,4(1H,3H)-dione]	A (0% ≤ substrate protein remaining % ≤80%)	A (0% ≤ substrate protein remaining % ≤80%)	B (80%< substrate protein remaining % ≤100%)	B (80%< substrate protein remaining % ≤100%)	B (80%< substrate protein remaining % ≤100%)	A (0% ≤ substrate protein remaining % ≤80%)
O=C1CCN(N2Cc3cc(CN4CCC(C5CCOc6cc(F)ccc65)CC4)ccc3C2=O)C(=O)N1 (stereo not drawn) [GT-07587, 1-(5-((4-(7-fluorochroman-4-yl)piperidin-1-yl)methyl)-1-oxoisoindolin-2-yl)dihydropyrimidine-2,4(1H,3H)-dione]	A (0% ≤ substrate protein remaining % ≤80%)	A (0% ≤ substrate protein remaining % ≤80%)	B (80%< substrate protein remaining % ≤100%)	B (80%< substrate protein remaining % ≤100%)	B (80%< substrate protein remaining % ≤100%)	A (0% ≤ substrate protein remaining % ≤80%)
O=C1CCN(N2Cc3cc(CN4CCC(=C5CCOc6cc(F)ccc65)CC4)ccc3C2=O)C(=O)N1 [GT-07588, 1-(5-((4-(7-fluorochroman-4-ylidene)piperidin-1-yl)methyl)-1-oxoisoindolin-2-yl)dihydropyrimidine-2,4(1H,3H)-dione]	A (0% ≤ substrate protein remaining % ≤80%)	B (80%< substrate protein remaining % ≤100%)	B (80%< substrate protein remaining % ≤100%)	B (80%< substrate protein remaining % ≤100%)	B (80%< substrate protein remaining % ≤100%)	B (80%< substrate protein remaining % ≤100%)

Reference: patent US20260356819A1, “OXOISOINDOLINYL-SUBSTITUTED […] DERIVATIVE AND USE THEREOF” (GLUETACS THERAPEUTICS (SHANGHAI) CO., LTD., priority 2023, published 2026)
